Measurements taken from article PMC9030254, “Target Hopping from Protein Kinases to PXR: Identification of Small-Molecule Protein Kinase Inhibitors as Selective Modulators of Pregnane X Receptor from TüKIC Library” (Cells, 2022).

Columns and labels:
Assay in all cases: Kinase profiling
Assay type in all cases: biochemical
[1] = molecular target: T1, MYLK2 (Homo sapiens, UniProt Q9H1R3)
T1 construct: purchased ProQinase (Freiburg, Germany)
Description: (§1) The analysis was performed by ProQinase (Freiburg, Germany).

[2] = molecular target: T2, FES (Homo sapiens, UniProt P07332)
T2 construct: purchased ProQinase (Freiburg, Germany)
Description: as §1

[3] = molecular target: T3, TSSK1 (Homo sapiens, UniProt Q9BXA7)
T3 construct: purchased ProQinase (Freiburg, Germany)
T3 sequence (Q9BXA7 1-367): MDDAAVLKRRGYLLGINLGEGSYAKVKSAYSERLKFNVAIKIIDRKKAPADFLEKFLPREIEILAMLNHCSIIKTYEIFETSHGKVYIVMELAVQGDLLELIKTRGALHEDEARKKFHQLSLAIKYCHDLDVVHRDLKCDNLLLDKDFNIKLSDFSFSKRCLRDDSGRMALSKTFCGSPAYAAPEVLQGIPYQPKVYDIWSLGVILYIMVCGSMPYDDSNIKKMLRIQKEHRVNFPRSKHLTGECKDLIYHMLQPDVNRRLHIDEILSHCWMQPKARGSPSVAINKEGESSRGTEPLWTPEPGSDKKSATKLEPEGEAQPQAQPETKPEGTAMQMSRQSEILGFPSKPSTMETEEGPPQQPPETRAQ
Description: as §1

[4] = molecular target: T4, ACVR2A (Homo sapiens, UniProt P27037)
T4 construct: purchased ProQinase (Freiburg, Germany)
Description: as §1

[5] = molecular target: T5, PKCalpha (Homo sapiens, UniProt P17252)
T5 construct: purchased ProQinase (Freiburg, Germany)
Description: as §1

[6] = molecular target: T6, MST3 (Homo sapiens, UniProt Q9Y6E0)
T6 construct: purchased ProQinase (Freiburg, Germany)
Description: as §1

[7] = molecular target: T7, TRKB (Homo sapiens, UniProt Q16620)
T7 construct: purchased ProQinase (Freiburg, Germany)
Description: as §1

[8] = molecular target: T8, PKCtheta (Homo sapiens, UniProt Q04759)
T8 construct: purchased ProQinase (Freiburg, Germany)
Description: as §1

[9] = molecular target: T9, TRKA (Homo sapiens, UniProt P04629)
T9 construct: purchased ProQinase (Freiburg, Germany)
Description: as §1

[10] = molecular target: T10, MST4 (Homo sapiens, UniProt Q9P289)
T10 construct: purchased ProQinase (Freiburg, Germany)
Description: as §1

[11] = molecular target: T11, CDK20/CycT1 (Homo sapiens, UniProt Q8IZL9)
T11 construct: purchased ProQinase (Freiburg, Germany)
Description: as §1

[12] = molecular target: T12, ABL1 (Homo sapiens, UniProt P00519)
T12 construct: purchased ProQinase (Freiburg, Germany)
Description: as §1

[13] = molecular target: T13, FYN (Homo sapiens, UniProt P06241)
T13 construct: purchased ProQinase (Freiburg, Germany)
Description: as §1

[14] = molecular target: T14, ACK1 (Homo sapiens, UniProt Q07912)
T14 construct: purchased ProQinase (Freiburg, Germany)
Description: as §1

[15] = molecular target: T15, MST1 (Homo sapiens, UniProt Q13043)
T15 construct: purchased ProQinase (Freiburg, Germany)
T15 sequence (Q13043 1-487): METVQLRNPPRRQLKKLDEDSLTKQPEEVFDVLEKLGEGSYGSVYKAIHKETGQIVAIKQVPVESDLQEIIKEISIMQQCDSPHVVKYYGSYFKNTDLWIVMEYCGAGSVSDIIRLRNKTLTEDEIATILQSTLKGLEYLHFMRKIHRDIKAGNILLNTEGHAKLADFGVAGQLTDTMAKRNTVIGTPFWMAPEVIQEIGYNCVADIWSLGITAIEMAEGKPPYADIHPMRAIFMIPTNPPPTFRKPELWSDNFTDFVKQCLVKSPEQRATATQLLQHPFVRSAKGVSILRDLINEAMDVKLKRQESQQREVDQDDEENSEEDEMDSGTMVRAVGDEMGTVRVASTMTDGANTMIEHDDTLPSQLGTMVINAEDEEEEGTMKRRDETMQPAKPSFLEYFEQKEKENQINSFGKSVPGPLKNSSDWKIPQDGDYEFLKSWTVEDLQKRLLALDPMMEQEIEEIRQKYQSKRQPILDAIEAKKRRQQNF
Description: as §1

[16] = molecular target: T16, CDK4/CycD2 (Homo sapiens, UniProt P11802)
T16 construct: purchased ProQinase (Freiburg, Germany)
Description: as §1

[17] = molecular target: T17, LCK (Homo sapiens, UniProt P06239)
T17 construct: purchased ProQinase (Freiburg, Germany)
Description: as §1

[18] = molecular target: T18, SGK3 (Homo sapiens, UniProt Q96BR1)
T18 construct: purchased ProQinase (Freiburg, Germany)
T18 sequence (Q96BR1 1-496): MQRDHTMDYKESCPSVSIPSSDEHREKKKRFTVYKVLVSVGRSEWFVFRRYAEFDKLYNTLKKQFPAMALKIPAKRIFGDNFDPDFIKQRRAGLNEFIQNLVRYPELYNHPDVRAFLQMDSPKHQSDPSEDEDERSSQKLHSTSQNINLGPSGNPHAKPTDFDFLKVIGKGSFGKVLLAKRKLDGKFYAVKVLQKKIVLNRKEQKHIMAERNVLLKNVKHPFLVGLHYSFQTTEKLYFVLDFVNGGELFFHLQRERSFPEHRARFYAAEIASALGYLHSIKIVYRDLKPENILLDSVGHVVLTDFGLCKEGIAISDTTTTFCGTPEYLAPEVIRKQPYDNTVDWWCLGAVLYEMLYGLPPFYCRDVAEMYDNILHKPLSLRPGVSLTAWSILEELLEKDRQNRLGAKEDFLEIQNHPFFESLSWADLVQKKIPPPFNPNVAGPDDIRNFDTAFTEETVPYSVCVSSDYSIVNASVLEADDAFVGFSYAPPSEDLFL
Description: as §1

T10 sequence (Q9P289 whole entry): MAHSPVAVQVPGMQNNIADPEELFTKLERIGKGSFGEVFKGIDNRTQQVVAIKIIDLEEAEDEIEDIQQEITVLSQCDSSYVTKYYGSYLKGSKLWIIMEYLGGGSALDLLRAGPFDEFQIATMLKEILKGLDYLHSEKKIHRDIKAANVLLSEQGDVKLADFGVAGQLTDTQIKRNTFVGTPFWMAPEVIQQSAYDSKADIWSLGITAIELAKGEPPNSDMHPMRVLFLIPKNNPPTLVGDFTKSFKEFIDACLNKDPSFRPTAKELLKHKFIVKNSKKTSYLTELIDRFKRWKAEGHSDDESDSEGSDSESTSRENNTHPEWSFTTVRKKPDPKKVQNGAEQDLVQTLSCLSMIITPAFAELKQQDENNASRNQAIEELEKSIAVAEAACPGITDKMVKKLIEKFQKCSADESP
T4 sequence (P27037 20-513): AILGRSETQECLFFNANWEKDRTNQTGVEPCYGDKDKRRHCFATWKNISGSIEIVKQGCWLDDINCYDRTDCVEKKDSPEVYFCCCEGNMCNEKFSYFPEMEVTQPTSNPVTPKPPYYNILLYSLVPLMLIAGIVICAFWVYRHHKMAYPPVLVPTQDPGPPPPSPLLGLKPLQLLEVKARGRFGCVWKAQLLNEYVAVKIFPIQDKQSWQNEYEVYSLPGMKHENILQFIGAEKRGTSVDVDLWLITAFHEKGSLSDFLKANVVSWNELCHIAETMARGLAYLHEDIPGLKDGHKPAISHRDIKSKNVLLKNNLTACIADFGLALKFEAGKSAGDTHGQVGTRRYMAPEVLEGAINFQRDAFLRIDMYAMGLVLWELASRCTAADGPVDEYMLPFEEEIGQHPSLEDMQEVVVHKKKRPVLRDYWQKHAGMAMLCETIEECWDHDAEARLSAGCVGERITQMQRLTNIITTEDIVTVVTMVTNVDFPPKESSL
T11 sequence (Q8IZL9 whole entry): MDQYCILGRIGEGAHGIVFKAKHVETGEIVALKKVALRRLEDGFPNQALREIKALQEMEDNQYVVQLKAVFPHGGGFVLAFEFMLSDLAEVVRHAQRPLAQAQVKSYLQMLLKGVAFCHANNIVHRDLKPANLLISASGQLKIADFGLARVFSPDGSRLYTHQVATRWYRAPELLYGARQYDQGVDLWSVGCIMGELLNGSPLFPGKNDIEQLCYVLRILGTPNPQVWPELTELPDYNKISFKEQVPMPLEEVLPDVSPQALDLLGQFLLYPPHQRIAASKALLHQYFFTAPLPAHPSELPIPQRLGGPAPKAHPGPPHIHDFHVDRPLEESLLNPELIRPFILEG
T11 sequence (O60563 whole entry partner): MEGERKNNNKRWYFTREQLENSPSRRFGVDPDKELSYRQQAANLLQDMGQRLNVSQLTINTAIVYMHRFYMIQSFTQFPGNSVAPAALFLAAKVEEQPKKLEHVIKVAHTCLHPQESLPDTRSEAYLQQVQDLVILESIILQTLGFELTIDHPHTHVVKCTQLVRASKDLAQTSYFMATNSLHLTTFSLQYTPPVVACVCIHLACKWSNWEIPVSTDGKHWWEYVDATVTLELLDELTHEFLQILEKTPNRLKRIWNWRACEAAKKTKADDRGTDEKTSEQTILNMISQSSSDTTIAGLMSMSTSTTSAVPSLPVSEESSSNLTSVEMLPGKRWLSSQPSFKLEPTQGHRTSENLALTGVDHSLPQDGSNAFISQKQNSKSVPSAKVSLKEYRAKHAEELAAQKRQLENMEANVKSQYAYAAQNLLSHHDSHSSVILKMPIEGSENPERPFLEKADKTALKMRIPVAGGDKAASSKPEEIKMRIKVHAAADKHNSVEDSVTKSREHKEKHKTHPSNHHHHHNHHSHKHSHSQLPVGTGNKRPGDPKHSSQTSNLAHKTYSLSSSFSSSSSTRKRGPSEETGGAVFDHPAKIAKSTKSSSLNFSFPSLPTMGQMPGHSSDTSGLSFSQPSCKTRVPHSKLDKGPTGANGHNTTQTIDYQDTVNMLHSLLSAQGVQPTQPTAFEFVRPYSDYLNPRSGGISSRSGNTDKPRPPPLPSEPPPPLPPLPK
T2 sequence (P07332 whole entry): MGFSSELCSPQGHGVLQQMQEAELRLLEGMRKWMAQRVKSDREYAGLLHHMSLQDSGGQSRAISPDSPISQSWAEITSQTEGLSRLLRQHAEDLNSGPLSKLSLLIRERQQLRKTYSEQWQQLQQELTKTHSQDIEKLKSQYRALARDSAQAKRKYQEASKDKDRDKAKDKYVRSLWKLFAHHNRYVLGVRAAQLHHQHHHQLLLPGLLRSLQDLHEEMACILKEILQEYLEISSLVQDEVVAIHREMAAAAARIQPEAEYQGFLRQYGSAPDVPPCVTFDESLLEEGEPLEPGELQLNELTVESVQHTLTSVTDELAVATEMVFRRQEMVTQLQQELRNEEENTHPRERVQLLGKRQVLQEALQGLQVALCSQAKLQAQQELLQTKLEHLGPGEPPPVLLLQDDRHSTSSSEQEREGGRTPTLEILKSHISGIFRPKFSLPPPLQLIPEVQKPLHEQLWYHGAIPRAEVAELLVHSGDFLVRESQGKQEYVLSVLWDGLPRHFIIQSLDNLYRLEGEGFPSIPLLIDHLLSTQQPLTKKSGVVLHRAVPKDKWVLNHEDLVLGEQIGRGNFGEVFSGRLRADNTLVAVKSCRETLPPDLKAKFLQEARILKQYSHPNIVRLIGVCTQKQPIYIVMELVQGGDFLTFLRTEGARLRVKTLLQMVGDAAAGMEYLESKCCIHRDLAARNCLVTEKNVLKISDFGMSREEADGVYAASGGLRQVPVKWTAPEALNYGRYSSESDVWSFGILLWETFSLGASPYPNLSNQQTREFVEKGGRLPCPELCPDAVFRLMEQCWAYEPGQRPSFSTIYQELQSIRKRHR
T6 sequence (Q9Y6E0 whole entry): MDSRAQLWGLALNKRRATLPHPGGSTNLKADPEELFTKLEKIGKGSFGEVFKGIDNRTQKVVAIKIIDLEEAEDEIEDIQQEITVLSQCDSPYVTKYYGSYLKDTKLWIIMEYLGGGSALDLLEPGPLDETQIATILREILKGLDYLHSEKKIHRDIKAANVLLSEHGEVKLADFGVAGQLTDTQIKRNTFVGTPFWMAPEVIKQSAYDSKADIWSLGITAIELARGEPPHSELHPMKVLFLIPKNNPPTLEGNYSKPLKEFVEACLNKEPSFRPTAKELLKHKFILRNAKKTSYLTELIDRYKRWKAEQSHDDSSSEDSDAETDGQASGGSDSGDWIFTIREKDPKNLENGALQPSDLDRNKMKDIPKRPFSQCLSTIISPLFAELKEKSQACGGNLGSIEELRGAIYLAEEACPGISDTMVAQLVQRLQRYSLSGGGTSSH
T12 sequence (P00519 whole entry): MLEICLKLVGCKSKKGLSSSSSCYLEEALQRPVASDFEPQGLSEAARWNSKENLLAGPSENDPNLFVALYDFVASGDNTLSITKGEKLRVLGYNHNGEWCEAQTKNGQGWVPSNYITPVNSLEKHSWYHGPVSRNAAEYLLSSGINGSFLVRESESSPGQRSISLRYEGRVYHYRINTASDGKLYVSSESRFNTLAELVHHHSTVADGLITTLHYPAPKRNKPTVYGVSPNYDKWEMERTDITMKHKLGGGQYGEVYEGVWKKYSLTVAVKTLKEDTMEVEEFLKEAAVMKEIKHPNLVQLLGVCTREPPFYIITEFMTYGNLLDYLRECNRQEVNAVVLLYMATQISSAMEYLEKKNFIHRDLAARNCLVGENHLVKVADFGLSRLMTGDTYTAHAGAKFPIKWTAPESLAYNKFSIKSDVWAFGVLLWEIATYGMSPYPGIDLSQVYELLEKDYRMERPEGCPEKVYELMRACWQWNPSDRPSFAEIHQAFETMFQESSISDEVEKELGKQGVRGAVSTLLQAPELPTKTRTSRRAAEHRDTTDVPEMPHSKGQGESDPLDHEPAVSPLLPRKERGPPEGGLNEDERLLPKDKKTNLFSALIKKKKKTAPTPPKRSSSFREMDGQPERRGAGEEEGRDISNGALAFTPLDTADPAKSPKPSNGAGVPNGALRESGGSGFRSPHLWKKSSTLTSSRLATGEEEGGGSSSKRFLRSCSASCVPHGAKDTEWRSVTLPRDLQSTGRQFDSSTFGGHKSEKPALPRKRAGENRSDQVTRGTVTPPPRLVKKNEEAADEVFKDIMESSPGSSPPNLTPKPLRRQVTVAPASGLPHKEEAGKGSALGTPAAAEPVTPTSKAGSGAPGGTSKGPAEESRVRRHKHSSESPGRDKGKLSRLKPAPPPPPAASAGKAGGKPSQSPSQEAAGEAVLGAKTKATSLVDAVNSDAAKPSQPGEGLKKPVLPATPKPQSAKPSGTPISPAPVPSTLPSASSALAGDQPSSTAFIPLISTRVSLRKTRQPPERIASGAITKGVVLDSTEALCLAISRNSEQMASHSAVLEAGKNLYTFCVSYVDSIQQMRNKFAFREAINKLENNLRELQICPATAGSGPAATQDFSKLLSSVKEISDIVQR

| Structure (SMILES) | Residual activity ([1]; 1.0E-05 M) | Residual activity ([1]; 1.0E-06 M) | Residual activity ([2]; 1.0E-05 M) | Residual activity ([2]; 1.0E-06 M) | Residual activity ([3]; 1.0E-05 M) | Residual activity ([3]; 1.0E-06 M) | Residual activity ([4]; 1.0E-05 M) | Residual activity ([4]; 1.0E-06 M) | Residual activity ([5]; 1.0E-05 M) | Residual activity ([5]; 1.0E-06 M) | Residual activity ([6]; 1.0E-05 M) | Residual activity ([6]; 1.0E-06 M) | Residual activity ([7]; 1.0E-05 M) | Residual activity ([7]; 1.0E-06 M) | Residual activity ([8]; 1.0E-05 M) | Residual activity ([8]; 1.0E-06 M) | Residual activity ([9]; 1.0E-05 M) | Residual activity ([9]; 1.0E-06 M) | Residual activity ([10]; 1.0E-05 M) | Residual activity ([10]; 1.0E-06 M) | other results |
| --- | --- | --- | --- | --- | --- | --- | --- | --- | --- | --- | --- | --- | --- | --- | --- | --- | --- | --- | --- | --- | --- |
| O=C(Cc1ccccc1)Nc1ccc(F)c(Nc2ccc3c(c2)CCCCC3=O)c1 [Compound 100] | 82 % of control | 93 % of control | 67 % of control | 81 % of control | 105 % of control | 112 % of control | 95 % of control | 89 % of control | 82 % of control | 95 % of control | 114 % of control | 122 % of control | 74 % of control | 105 % of control | 82 % of control | 104 % of control | 94 % of control | 107 % of control | 82 % of control | 90 % of control | Residual activity ([11]; 1.0E-05 M): 92 % of control; Residual activity ([11]; 1.0E-06 M): 98 % of control; Residual activity ([12]; 1.0E-05 M): 88 % of control; Residual activity ([12]; 1.0E-06 M): 90 % of control; Residual activity ([13]; 1.0E-05 M): 55 % of control; Residual activity ([13]; 1.0E-06 M): 90 % of control; Residual activity ([14]; 1.0E-05 M): 92 % of control; Residual activity ([14]; 1.0E-06 M): 112 % of control; Residual activity ([15]; 1.0E-05 M): 92 % of control; Residual activity ([15]; 1.0E-06 M): 102 % of control; Residual activity ([16]; 1.0E-05 M): 86 % of control; Residual activity ([16]; 1.0E-06 M): 94 % of control; Residual activity ([17]; 1.0E-05 M): 66 % of control; Residual activity ([17]; 1.0E-06 M): 107 % of control; Residual activity ([18]; 1.0E-05 M): 98 % of control; Residual activity ([18]; 1.0E-06 M): 103 % of control |
| O=C(Nc1ccc(F)c(Nc2ccc3c(c2)CCCCC3=O)c1)c1cccc(F)c1 [Compound 109] | 79 % of control | 85 % of control | 90 % of control | 79 % of control | 102 % of control | 102 % of control | 108 % of control | 99 % of control | 73 % of control | 92 % of control | 103 % of control | 106 % of control | 92 % of control | 101 % of control | 84 % of control | 106 % of control | 97 % of control | 101 % of control | 80 % of control | 92 % of control | Residual activity ([11]; 1.0E-05 M): 101 % of control; Residual activity ([11]; 1.0E-06 M): 96 % of control; Residual activity ([12]; 1.0E-05 M): 91 % of control; Residual activity ([12]; 1.0E-06 M): 91 % of control; Residual activity ([13]; 1.0E-05 M): 83 % of control; Residual activity ([13]; 1.0E-06 M): 104 % of control; Residual activity ([14]; 1.0E-05 M): 89 % of control; Residual activity ([14]; 1.0E-06 M): 96 % of control; Residual activity ([15]; 1.0E-05 M): 98 % of control; Residual activity ([15]; 1.0E-06 M): 103 % of control; Residual activity ([16]; 1.0E-05 M): 91 % of control; Residual activity ([16]; 1.0E-06 M): 94 % of control; Residual activity ([17]; 1.0E-05 M): 84 % of control; Residual activity ([17]; 1.0E-06 M): 102 % of control; Residual activity ([18]; 1.0E-05 M): 97 % of control; Residual activity ([18]; 1.0E-06 M): 96 % of control |
